Columns and labels:
rabbit platelet [1] = assay: Collagen-induced aggregation in rabbit platelets (AG-II Aggregometer); assay type: cell-based; design: inhibition: dose or concentration left out as unconfirmed; conditions: Oryctolagus cuniculus, Platelet, read-out: Inhibition effect on collagen induced aggregation in rabbit platelet; for inhibition at 100 µM (stock): 10^-4 mole; for inhibition at 10 µM (stock): 10^-5 mole; for inhibition at 1 µM (stock): 10^-6 mole
Procedure: (§1) The platelet aggregation inhibitory effect is measured by using AG-II Aggregometer (manufactured by Bryston Manufacturing Co.). The blood sample used for the test is a 1/9 (by volume) mixture of sodium citrate and whole blood collected from rabbit. Said sample is subjected to 10-minute centrifugal separation at 1,000 r.p.m. to obtain a platelet rich plasma (PRP). The thus obtained PRP is separated, and the remaining blood sample is further subjected to 15-minute centrifugal separation at 3,000 r.p.m. to obtain a platelet poor plasma (PPP).
(§2) The number of platelets in the PRP is counted by the Brecher-Clonkite Method, and the PRP is diluted with the PPP to prepare a PRP sample with platelet concentration of 300,000/mm^3 for the adenosine diphosphate (ADP)-induced aggregation test. There is also prepared a PRP sample with platelet concentration of 450,000/mm^3 for the collagen-induced aggregation test.
(§3) 0.6 ml of said PRP sample is added into 0.01 ml of a solution of a test compound of a predetermined concentration and the mixture is placed in a 37° C. thermostat for one minute. Then 0.07 ml of an ADP or collagen solution is added to the mixture. Transmittance of this mixture is determined and the change of transmittance is recorded by using the aggregometer at stirrer speed of 1,100 r.p.m. In this test, Auren Beronal buffer (pH 7.35) is used for the preparation of the ADP or collagen solution. ADP is adjusted to a concentration of 7.5×10^-5 M, and the collagen solution is prepared by triturating 100 mg of collagen with 5 ml of said buffer and the supernatant is used as collagen inducer. Adenosine and acetylsalicylic acid are used as controls for the ADP-induced aggregation test and the collagen-induced aggregation test, respectively. The platelet aggregation inhibitory effect is measured in terms of percent inhibition with respect to the aggregation rate of the controls. The aggregation rate is calculated from the following formula:
(§4) Aggregation rate=(c-a)/(b-a)×100
(§5) b: transmittance of PRP containing a test compound and an aggregation inducer
(§6) The inhibitory effect of the tested compounds on collagen-induced aggregation in rabbit platelets is shown in Table 1, and such effect on ADP-induced aggregation is shown in Table 2. The compounds tested are as follows.

rabbit platelet [2] = assay: ADP-induced aggregation in rabbit platelets (AG-II Aggregometer); assay type: cell-based; conditions: Oryctolagus cuniculus, Platelet, read-out: Inhibition effect on ADP-induced aggregation in rabbit platelet; for inhibition at 100 µM (stock): 10^-4 mole; for inhibition at 10 µM (stock): 10^-5 mole; for inhibition at 1 µM (stock): 10^-6 mole
Procedure: as §1, §2, §3, §4, §5, §6

[3] = Acute toxicity test, oral administration to mice; assay type: in vivo; conditions: mouse, in vivo, Male mice
Procedure: The test compounds were administered orally to the mice and LD50 (mg/kg) of the compounds was determined.

With `O=C(CCCOc1ccc2c(c1)CCC(=O)N2)Nc1ccccc1` [compound 19, 6-[3-(Anilinocarbonyl)propoxy]-3,4-dihydrocarbostyril] the inhibition at 100 µM (stock) (rabbit platelet [1]) was 93.8%, the inhibition at 10 µM (stock) (rabbit platelet [1]) was 17.4% and the inhibition at 100 µM (stock) (rabbit platelet [2]) was 24.6%. For the same molecule, the inhibition at 10 µM (stock) (rabbit platelet [2]) was 16.2% and the LD50 [3] was greater than 1000 mg/kg.
In the case of `CCN(C(=O)CCCOc1c(Cl)cc(Cl)c2c1CCC(=O)N2)c1ccccc1` [compound 12, 6,8-Dichloro-5-[3-(N-ethylanilinocarbonyl)propoxy]-3,4-dihydrocarbostyril], the inhibition at 100 µM (stock) (rabbit platelet [1]) is reported as 82.6%, the inhibition at 10 µM (stock) (rabbit platelet [1]) is reported as 65.2% and the inhibition at 1 µM (stock) (rabbit platelet [1]) is reported as 33.8%. For the same molecule, the inhibition at 100 µM (stock) (rabbit platelet [2]) was 71.7%, the inhibition at 10 µM (stock) (rabbit platelet [2]) was 33.8% and the inhibition at 1 µM (stock) (rabbit platelet [2]) was 12.7%. For the same molecule, the LD50 [3] was greater than 1000 mg/kg.
Work on `CCN1C(=O)CCc2c(OCCCC(=O)NCc3ccccc3)cccc21` [compound 44, 1-Ethyl-5-[3-(N-benzylaminocarbonyl)propoxy]-3,4-dihydrocarbostyril, reference compound] yielded an inhibition at 100 µM (stock) (rabbit platelet [1]) of 7%, an inhibition at 10 µM (stock) (rabbit platelet [1]) of 0% and an inhibition at 1 µM (stock) (rabbit platelet [1]) of 0%. It also gave an inhibition at 100 µM (stock) (rabbit platelet [2]) of 14%, an inhibition at 10 µM (stock) (rabbit platelet [2]) of 6% and an inhibition at 1 µM (stock) (rabbit platelet [2]) of 0%. For the same molecule, the LD50 [3] was 500 to 600 mg/kg.
Work on `O=C1CCc2cc(OCCCC(=O)N(c3ccccc3)c3ccccc3)ccc2N1` [compound 24, 6-[3-(N,N-Diphenylaminocarbonyl)propoxy]-3,4-dihydrocarbostyril] yielded an inhibition at 100 µM (stock) (rabbit platelet [1]) of 82.7%, an inhibition at 10 µM (stock) (rabbit platelet [1]) of 43.5% and an inhibition at 1 µM (stock) (rabbit platelet [1]) of 15.5%. For the same molecule, the inhibition at 100 µM (stock) (rabbit platelet [2]) was 43.2%, the inhibition at 10 µM (stock) (rabbit platelet [2]) was 22.3% and the inhibition at 1 µM (stock) (rabbit platelet [2]) was 13.4%. For the same molecule, the LD50 [3] was greater than 1000 mg/kg.
`O=C(CCCOc1ccc2[nH]c(=O)ccc2c1)NC1CCCCC1` [compound 13, 6-[3-(N-Cyclohexylaminocarbonyl)propoxy]carbostyril] gave an inhibition at 100 µM (stock) (rabbit platelet [1]) of 87.5%, an inhibition at 10 µM (stock) (rabbit platelet [1]) of 45.8% and an inhibition at 1 µM (stock) (rabbit platelet [1]) of 23.3%. For the same molecule, the inhibition at 100 µM (stock) (rabbit platelet [2]) was 39.6%, the inhibition at 10 µM (stock) (rabbit platelet [2]) was 24.8% and the inhibition at 1 µM (stock) (rabbit platelet [2]) was 18%. The LD50 [3] was greater than 1000 mg/kg.
With `CN(C(=O)CCCOc1ccc2[nH]c(=O)ccc2c1Cl)C1CCCCC1` [compound 6, 5-Chloro-6-[3-(N-methyl-N-cyclohexylaminocarbonyl)propoxy]carbostyril] the inhibition at 100 µM (stock) (rabbit platelet [1]) was 100%, the inhibition at 10 µM (stock) (rabbit platelet [1]) was 53.3% and the inhibition at 1 µM (stock) (rabbit platelet [1]) was 12.3%. For the same molecule, the inhibition at 100 µM (stock) (rabbit platelet [2]) was 87.2%, the inhibition at 10 µM (stock) (rabbit platelet [2]) was 5.4% and the LD50 [3] was greater than 1000 mg/kg.
For `CN(C(=O)CC(O)COc1ccc2[nH]c(=O)ccc2c1)C1CCCCC1` (stereo not shown) [compound 8, 6-[2-Hydroxy-3-(N-methyl-N-cyclohexylaminocarbonyl)propoxy]carbostyril], the inhibition at 100 µM (stock) (rabbit platelet [1]) was 85.5%, the inhibition at 10 µM (stock) (rabbit platelet [1]) was 86.8% and the inhibition at 1 µM (stock) (rabbit platelet [1]) was 2.9%. It also gave an inhibition at 100 µM (stock) (rabbit platelet [2]) of 91.7%, an inhibition at 10 µM (stock) (rabbit platelet [2]) of 41.1% and an LD50 [3] greater than 1000 mg/kg.
For `CCOC(=O)CCCOc1cccc2c1CCC(=O)N2` [compound 32, 5-(3-Ethoxycarbonylpropoxy)-3,4-dihydrocarbostyril, reference compound], the LD50 [3] was greater than 1000 mg/kg.
Work on `CN(C(=O)CCCOc1ccc2c(c1)CCC(=O)N2)C1CCCCC1` [compound 15, 6-[3-(N-Methyl-N-cyclohexylaminocarbonyl)propoxy]-3,4-dihydrocarbostyril] yielded an inhibition at 100 µM (stock) (rabbit platelet [1]) of 94%, an inhibition at 10 µM (stock) (rabbit platelet [1]) of 92.6% and an inhibition at 1 µM (stock) (rabbit platelet [1]) of 34.1%. It also gave an inhibition at 100 µM (stock) (rabbit platelet [2]) of 88.3%, an inhibition at 10 µM (stock) (rabbit platelet [2]) of 26.8% and an inhibition at 1 µM (stock) (rabbit platelet [2]) of 10.8%. For the same molecule, the LD50 [3] was greater than 1000 mg/kg.
`O=C(CCCOc1ccc2[nH]c(=O)ccc2c1)N(c1ccccc1)C1CCCCC1` [compound 17, 6-[3-(N-Cyclohexylanilinocarbonyl)propoxy]carbostyril] showed an inhibition at 100 µM (stock) (rabbit platelet [1]) of 91.5%, an inhibition at 10 µM (stock) (rabbit platelet [1]) of 53.8% and an inhibition at 1 µM (stock) (rabbit platelet [1]) of 16.7%. The inhibition at 100 µM (stock) (rabbit platelet [2]) was 82.5%, the inhibition at 10 µM (stock) (rabbit platelet [2]) was 38.7% and the inhibition at 1 µM (stock) (rabbit platelet [2]) was 12.3%. The LD50 [3] was greater than 1000 mg/kg.
In the case of `CC(C)NC(=O)CCOc1cccc2c1CCC(=O)N2` [compound 41, 5-(N-Isopropylaminocarbonylethoxy)-3,4-dihydrocarbostyril, reference compound], the inhibition at 100 µM (stock) (rabbit platelet [1]) is reported as 17%, the inhibition at 1 µM (stock) (rabbit platelet [1]) is reported as 0% and the inhibition at 100 µM (stock) (rabbit platelet [2]) is reported as 18%. For the same molecule, the inhibition at 10 µM (stock) (rabbit platelet [2]) was 13%, the inhibition at 1 µM (stock) (rabbit platelet [2]) was 7% and the LD50 [3] was 500 to 800 mg/kg.
For `CC(COc1ccc2[nH]c(=O)ccc2c1)CC(=O)N(C)C1CCCCC1` (stereo not shown) [compound 9, 6-[3-(N-Methyl-N-cyclohexylaminocarbonyl)-2-methylpropoxy]carbostyril], the inhibition at 100 µM (stock) (rabbit platelet [1]) was 100%, the inhibition at 10 µM (stock) (rabbit platelet [1]) was 100% and the inhibition at 1 µM (stock) (rabbit platelet [1]) was 100%. It also gave an inhibition at 0.1 µM (stock) (rabbit platelet [1]; 10^-7 mole) of 11.2%, an inhibition at 100 µM (stock) (rabbit platelet [2]) of 92.8% and an inhibition at 10 µM (stock) (rabbit platelet [2]) of 70.4%. For the same molecule, the inhibition at 1 µM (stock) (rabbit platelet [2]) was 5.8% and the LD50 [3] was greater than 1000 mg/kg.
Molecule `O=C(O)CCCOc1ccc2[nH]c(=O)ccc2c1` [compound 39, 6-(3-Carboxypropoxy)carbostyril, reference compound] has an inhibition at 100 µM (stock) (rabbit platelet [1]) of 28%, an inhibition at 10 µM (stock) (rabbit platelet [1]) of 15% and an inhibition at 1 µM (stock) (rabbit platelet [1]) of 0%. It also gave an inhibition at 100 µM (stock) (rabbit platelet [2]) of 52%, an inhibition at 10 µM (stock) (rabbit platelet [2]) of 23% and an inhibition at 1 µM (stock) (rabbit platelet [2]) of 5%. It also gave an LD50 [3] greater than 1000 mg/kg.
With `CN(C(=O)CCCOc1ccc2[nH]c(=O)ccc2c1)C1CCC(O)CC1` (stereo not shown) [compound 2, 6-{3-[N-Methyl-N-(4-hydroxycyclohexyl)aminocarbonyl]propoxy}carbostyril] the inhibition at 10 µM (stock) (rabbit platelet [1]) was 100%, the inhibition at 1 µM (stock) (rabbit platelet [1]) was 89.7% and the inhibition at 10 µM (stock) (rabbit platelet [2]) was 90.3%. It also gave an inhibition at 1 µM (stock) (rabbit platelet [2]) of 54.3% and an LD50 [3] greater than 1000 mg/kg.
For `CCCCCOC(=O)C(C)Oc1ccc2c(c1)CCC(=O)N2` (stereo not shown) [compound 30, 6-(1-Amyloxycarbonylethoxy)-3,4-dihydrocarbostyril, reference compound], the LD50 [3] was greater than 1000 mg/kg.
`CCOC(=O)C(C)Oc1ccc2c(c1)CCC(=O)N2` (stereo not shown) [compound 25, 6-(1-Ethoxycarbonylethoxy)-3,4-dihydrocarbostyril, reference compound] gave an LD50 [3] greater than 1000 mg/kg.
For `CC(C)(Oc1ccc2c(c1)CCC(=O)N2)C(=O)O` [compound 38, 6-(1-Methyl-1-carboxyethoxy)-3,4-dihydrocarbostyril, reference compound], the inhibition at 100 µM (stock) (rabbit platelet [1]) was 5%, the inhibition at 10 µM (stock) (rabbit platelet [1]) was 3% and the inhibition at 1 µM (stock) (rabbit platelet [1]) was 0%. For the same molecule, the inhibition at 100 µM (stock) (rabbit platelet [2]) was 10%, the inhibition at 10 µM (stock) (rabbit platelet [2]) was 5% and the inhibition at 1 µM (stock) (rabbit platelet [2]) was 3%. For the same molecule, the LD50 [3] was 800 to 1000 mg/kg.
Molecule `CCCCCOC(=O)CCCOc1ccc2c(c1)CCC(=O)N2` [compound 33, 6-(3-Amyloxycarbonylpropoxy)-3,4-dihydrocarbostyril, reference compound] has an LD50 [3] greater than 1000 mg/kg.
`CCOC(=O)C(C)Oc1ccc2c(c1)CCC(=O)N2C` (stereo not shown) [compound 27, 1-Methyl-6-(1-ethoxycarbonylethoxy)-3,4-dihydrocarbostyril, reference compound] showed an LD50 [3] of 800 to 1000 mg/kg.
For `CC(C)OC(=O)C(C)Oc1ccc2[nH]c(=O)ccc2c1` (stereo not shown) [compound 31, 6-(1-Isopropoxycarbonylethoxy)carbostyril, reference compound], the LD50 [3] was 900 to 1000 mg/kg.
`CCOC(=O)C(C)Oc1ccc2[nH]c(=O)ccc2c1` (stereo not shown) [compound 26, 6-(1-Ethoxycarbonylethoxy)carostyril, reference compound] gave an LD50 [3] greater than 1000 mg/kg.
Work on `CCOC(=O)CCCCCCOc1ccc2c(c1)CCC(=O)N2` [compound 35, 6-(6-Ethoxycarbonylhexyloxy)-3,4-dihydrocarbostyril, reference compound] yielded an LD50 [3] of 750 to 1000 mg/kg.
With `CCOC(=O)C(C)Oc1cccc2c1NC(=O)CC2` (stereo not shown) [compound 37, 8-(1-Ethoxycarbonylethoxy)-3,4-dihydrocarbostyril, reference compound] the LD50 [3] was 900 to 1000 mg/kg.
For `O=C(O)CCCCCCOc1ccc2c(c1)CCC(=O)N2` [compound 36, 6-(6-Carboxyhexyloxy)-3,4-dihydrocarbostyril, reference compound], the LD50 [3] was greater than 1000 mg/kg.
`CCOC(=O)C(C)Oc1ccc2c(c1)NC(=O)CC2` (stereo not shown) [compound 28, 7-(1-ethoxycarbonylethoxy)-3,4-dihydrocarbostyril, reference compound] showed an LD50 [3] greater than 1000 mg/kg.
Molecule `CC(=O)Oc1ccccc1C(=O)O` [compound 46, Aspirin, reference compound] has an inhibition (rabbit platelet [1]) of 9%, an inhibition at 100 µM (stock) (rabbit platelet [2]) of 7% and an inhibition at 10 µM (stock) (rabbit platelet [2]) of 0%.

— US4298739A, “Novel carbostyril derivatives” (priority 1977, dated 1981)
